# Reference: patent EP4640674A1, “CRYSTAL FORMS OF ETHOXIMOD, PREPARATION METHOD THEREFOR AND USE THEREOF” (Jiankuan (Suzhou) Biotechnology Co., Ltd, priority 2022, dated 2024)
# Where “and” joins values, the source holds several entries; their conditions need not be identical. Identical values can stand only once. Entries after “also recorded” stand apart in the source; their conditions may differ.
# What was measured:
# Assay type in all cases: physicochemical
# [1] = Bulk density and tap density test, Hausner ratio and compressibility; conditions: hydrochloride
# Experimental: In this experiment, the measurement was performed by using a tap instrument according to a fixed volume method. Specific operations are as follows: the weighed powders were loaded into a 50 mL graduated cylinder, and the graduated cylinder was fixed on a support; the tap instrument was set to vibrate 55±5 times per minute for 6-8 min; a change in a volume of the powders in the measuring cup was measured. A ratio of a mass of the powders to a volume (50 mL) of the materials before the tap is the bulk density of the powders, and a ratio of the mass of the powders to a volume of the materials after the tap is the tap density of the powders. Methods for converting Hausner ratio and compressibility are as follows, and the description of Hausner ratio and flowability is shown in Table 8: Table 6 Physical properties of crystal form A and crystal form B
# [2] = Dynamic vapor sorption (hygroscopicity); conditions: hydrochloride
# Excerpt: In the examples of the present application, the instrument used for the X-ray powder diffraction test is the D2 Phaser produced by Bruker. The instrument used for the differential scanning calorimetry test is the differential scanning calorimeter DSC 250 produced by TA Instruments. The instrument used for the thermogravimetric analysis is the thermogravimetric analyzer TGA 55 produced by TA Instruments. The instrument used for the FT-IR test is the Fourier infrared spectrometer ID1-summit produced by Thermo. The instrument used for the dynamic vapor sorption test is the DVS Intrinsic produced by Surface Measurement Systems (SMS). The instrument used for the microscopy is the microscope NJF-120A produced by Suzhou Nanguang Electronic Technology Co., Ltd.
# Samples of the crystal form A and the crystal form B of ethoximod were taken for a dynamic vapor sorption test.
# [3] = Mechanical stability: grinding, XRPD before and after; conditions: ground with an agate mortar for 5 min; hydrochloride
# Experimental: 50 mg crystal form A of ethoximod and 50 mg crystal form B of ethoximod were weighed and ground clockwise with an agate mortar for 5 min, and the samples before and after the grinding were subjected to an XRPD test.
# [4] = Compressibility: tableting evaluation; conditions: tableting, punch die with a diameter of 6 mm; hydrochloride
# Experimental: The crystal form A and the crystal form B of ethoximod were taken for preparation tableting evaluation. In this experiment, samples were subjected to tableting under the same pressure by using a punch die with a diameter of 6 mm, radial crushing forces F, diameters D and thicknesses L of the tablets were measured after the elastic recovery of the tablets, and the tensile strength of the tablets was calculated according to the following formula: tensile strength Ts = 2F/ΠDL.
# [5] = Dynamic solubility at 37 °C (HPLC; residual solid by XRPD)
# Experimental: Samples of the crystal form A and the crystal form B of ethoximod were taken and prepared into saturated solutions at 37 °C in Fasted State Simulated Intestinal Fluid (FaSSIF, pH = 8.0), Fed State Simulated Intestinal Fluid (FeSSIF, pH = 5.0), Simulated Gastric Fluid (SGF, pH = 1.0), a hydrochloric acid aqueous solution (pH = 1.0), an acetic acid-sodium acetate buffer system (pH = 4.0), a phosphate buffer system (pH = 6.8) and water. After 1 h/2 h/4 h/24 h, filtration was performed to obtain solutions, and actual concentrations of the samples in the solutions were measured through high-performance liquid chromatography (HPLC) (diluting the filtrates as needed). Crystal forms of the solids before and after the experiment were characterized through XRPD to check whether phase transition had occurred. Table 4 Comparison of solubility of crystal form A and crystal form B
# [6] = Adhesion test in ziplock bag; conditions: ziplock bag flipped at 5 rpm, 10 min in each direction; hydrochloride
# Experimental: Each of the crystal form A and the crystal form B of ethoximod was taken and put into a ziplock bag with a fixed size. A seal was sealed, and the ziplock bag was flipped at a rotation speed of 5 rpm for 10 min. A direction was changed, and the ziplock bag continued to be flipped at a fixed rotation speed for 10 min. Raw materials were poured out from the bag, a mass of the remaining raw materials was weighed accurately, and an adhesion rate was calculated.
# [7] = Angle of repose test (flowability); conditions: hydrochloride
# Experimental: Powder properties of active pharmaceutical ingredients affect the flowability of the active pharmaceutical ingredients. The crystal form A and the crystal form B of ethoximod was subjected to angle of repose and Hausner ratio tests to compare the flowability of the crystal form A and the crystal form B of ethoximod. […] In this experiment, angles of repose of active pharmaceutical ingredients of the two crystal forms were measured through an injection method in combination with a residual cone method, and the flowability of the active pharmaceutical ingredients of the two crystal forms was analyzed. Specific operations are as follows: powders were injected into a center of a disc with a limited diameter, the injection was stopped until materials on an oblique side of a powder accumulation layer automatically flew out along an edge of the disc, a height (H) of a cone was measured, and the angle of repose was calculated according to the diameter (D = 2r) of the disc with tanQ = H/r.
# [8] = FaSSIF (pH = 8.0), 37 °C, 1 h, hydrochloride
# [9] = FaSSIF (pH = 8.0), 37 °C, 2 h, hydrochloride
# [10] = FaSSIF (pH = 8.0), 37 °C, 4 h, hydrochloride
# [11] = FaSSIF (pH = 8.0), 37 °C, 24 h, hydrochloride
smiles,measurement,setting,value
"CCc1nc(-c2ccc(-c3ccc(CCC(N)(CO)CO)cc3)cc2)co1.Cl [crystal form B, 2-amino-2-{2-(4'-(2-ethyloxazol-4-yl)-[1,1'-biphenyl]-4-yl)ethyl}-1,3-propylene glycol hydrochloride]",Compressibility,[1]; (tap density - bulk density)/tap density,62.0
same,Bulk Density,[1],0.0742 g/mL
same,Tap Density,[1],0.1953 g/mL
same,Hausner Ratio,[1]; tap density/bulk density,2.6
same,hygroscopic weight gain (vapor sorption),[2]; 25 °C/90% RH,4.6%
same,hygroscopicity,"[2]; DVS, 90% RH",with hygroscopicity; also recorded: has hygroscopicity
same,crystal form after the dynamic vapor sorption test (XRPD),[2]; after DVS test,crystal transformed into the crystal form C; also recorded: crystal transformed into a crystal form C
same,crystal form after grinding (XRPD),[3],partially crystal transformed into a crystal form C
same,Experimental Phenomenon,[4],relatively severe sticking
same,crystal form of the solid,[5]; [8],free alkali
same,solubility,[5]; [8],0.015 mg/mL
same,crystal form of the solid,[5]; [9],free alkali
same,solubility,[5]; [9],0.01 mg/mL
same,crystal form of the solid,[5]; [10],free alkali
same,solubility,[5]; [10],0.008 mg/mL
same,crystal form of the solid,[5]; [11],free alkali
same,solubility,[5]; [11],0.021 mg/mL
same,solubility,"[5]; FeSSIF (pH = 5.0), 37 °C, 1 h, hydrochloride",1.48 mg/mL
same,solubility,"[5]; FeSSIF (pH = 5.0), 37 °C, 2 h, hydrochloride",1.63 mg/mL
same,solubility,"[5]; FeSSIF (pH = 5.0), 37 °C, 4 h, hydrochloride",1.21 mg/mL
same,solubility,"[5]; FeSSIF (pH = 5.0), 37 °C, 24 h, hydrochloride",1.67 mg/mL
same,solubility,"[5]; SGF (pH = 1.0), 37 °C, 1 h, hydrochloride",0.29 mg/mL
same,solubility,"[5]; SGF (pH = 1.0), 37 °C, 2 h, hydrochloride",0.28 mg/mL
same,solubility,"[5]; SGF (pH = 1.0), 37 °C, 4 h, hydrochloride",0.32 mg/mL
same,solubility,"[5]; SGF (pH = 1.0), 37 °C, 24 h, hydrochloride",0.36 mg/mL
same,solubility,"[5]; acetic acid-sodium acetate buffer pH = 4.0, 37 °C, 1 h, hydrochloride",1.45 mg/mL
same,solubility,"[5]; acetic acid-sodium acetate buffer pH = 4.0, 37 °C, 2 h, hydrochloride",1.78 mg/mL
same,solubility,"[5]; acetic acid-sodium acetate buffer pH = 4.0, 37 °C, 4 h, hydrochloride",1.93 mg/mL
same,solubility,"[5]; acetic acid-sodium acetate buffer pH = 4.0, 37 °C, 24 h, hydrochloride",2.61 mg/mL
same,solubility,"[5]; hydrochloric acid aqueous solution pH = 1.0, 37 °C, 1 h, hydrochloride",0.30 mg/mL
same,solubility,"[5]; hydrochloric acid aqueous solution pH = 1.0, 37 °C, 2 h, hydrochloride",0.41 mg/mL
same,solubility,"[5]; hydrochloric acid aqueous solution pH = 1.0, 37 °C, 4 h, hydrochloride",0.32 mg/mL
same,solubility,"[5]; hydrochloric acid aqueous solution pH = 1.0, 37 °C, 24 h, hydrochloride",0.36 mg/mL
same,crystal form of the solid,"[5]; phosphate buffer pH = 6.8, 37 °C, 1 h",free alkali
same,crystal form of the solid,"[5]; phosphate buffer pH = 6.8, 37 °C, 2 h",free alkali
same,solubility,"[5]; phosphate buffer pH = 6.8, 37 °C, 2 h, hydrochloride",lower than limit of detection
same,crystal form of the solid,"[5]; phosphate buffer pH = 6.8, 37 °C, 4 h",free alkali
same,solubility,"[5]; phosphate buffer pH = 6.8, 37 °C, 4 h, hydrochloride",lower than limit of detection
same,crystal form of the solid,"[5]; phosphate buffer pH = 6.8, 37 °C, 24 h",free alkali
same,solubility,"[5]; phosphate buffer pH = 6.8, 37 °C, 24 h, hydrochloride",0.0019 mg/mL
same,solubility at 1 h,"[5]; phosphate buffer, 37 °C, pH 6.8, aqueous buffer, thermodynamic from solid, phosphate buffer pH = 6.8, 37 °C, 1 h",0.0001 mg/mL
same,solubility,"[5]; water, 37 °C, 1 h, hydrochloride",1.69 mg/mL
same,solubility,"[5]; water, 37 °C, 2 h, hydrochloride",1.65 mg/mL
same,solubility,"[5]; water, 37 °C, 4 h, hydrochloride",2.50 mg/mL
same,solubility,"[5]; water, 37 °C, 24 h, hydrochloride",2.16 mg/mL
same,Adhesion Amount Per Unit Area,[6],0.001 g/m^2
same,Weight of API Adsorbed in Bag,[6],0.0735 g
same,Average of Angles of Repose,[7],52.3 °
same,Angle of Repose,[7]; single determination,50.2 ° and 54.5 °
